Article PMC7714403 (JCI Insight, 2020)

How the values were obtained:
[1] = tested on: Ba/F3 cells GFP+IL3; assay: MTT viability assay; assay type: cell-based; details: Mus musculus, BaF3; Ba/F3 GFP+IL3; MTT, 72 hours; read-out: IC50 viability
Description: (§1) Drug treatments were carried out for 72 hours. Details are provided in the Supplemental Methods.

[2] = tested on: Ba/F3 cells expressing FLT3 D835H; assay: MTT viability assay; assay type: cell-based; details: Mus musculus, BaF3; Ba/F3 FLT3 D835H; MTT, 72 hours; read-out: IC50 viability
Description: as §1

[3] = tested on: MOLM13-RES cells; assay: MTT viability assay; assay type: cell-based; details: Homo sapiens; MOLM13-RES, FLT3-ITD/D835Y; MTT, 72 hours; read-out: IC50 viability
Description: as §1

[4] = tested on: Ba/F3 cells expressing FLT3 D835Y; assay: MTT viability assay; assay type: cell-based; details: Mus musculus, BaF3; Ba/F3 FLT3 D835Y; MTT, 72 hours; read-out: IC50 viability
Description: as §1

[5] = tested on: MV4-11 cells; assay: MTT viability assay; assay type: cell-based; details: Homo sapiens; MV4-11, FLT3-ITD; MTT, 72 hours; read-out: IC50 viability
Description: as §1

[6] = tested on: Ba/F3 cells expressing FLT3-ITD; assay: MTT viability assay; assay type: cell-based; details: Mus musculus, BaF3; Ba/F3 FLT3 ITD; MTT, 72 hours; read-out: IC50 viability
Description: as §1

[7] = tested on: Ba/F3 cells expressing FLT3-ITD/F691L; assay: MTT viability assay; assay type: cell-based; details: Mus musculus, BaF3, 72 hours
Description: as §1

[8] = tested on: Ba/F3 cells expressing FLT3 ITD/D835H; assay: MTT viability assay; assay type: cell-based; details: Mus musculus, BaF3; Ba/F3 FLT3 ITD/D835H; MTT, 72 hours; read-out: IC50 viability
Description: as §1

[9] = tested on: Ba/F3 cells expressing FLT3 ITD/D835Y; assay: MTT viability assay; assay type: cell-based; details: Mus musculus, BaF3; Ba/F3 FLT3 ITD/D835Y; MTT, 72 hours; read-out: IC50 viability
Description: as §1

[10] = tested on: MOLM13 cells; assay: MTT viability assay; assay type: cell-based; details: Homo sapiens, MOLM-13; MOLM13, FLT3-ITD; MTT, 72 hours; read-out: IC50 viability
Description: as §1

[11] = tested on: MOLM13 and MOLM13 NRAS G12D cells; assay: Cell growth of inducible MOLM13 NRAS G12D cells; assay type: cell-based, human; details: 15 nM, doxycycline induction
Description: with DAPI in 0.1% Triton-X (ThermoFisher Scientific) PBS for 30 minutes at room temperature and protected from light. The DNA content was determined using a BD LSR II flow cytometer. The cell cycle distribution was […]
Cells that grow out of the CFU assays were washed with PBS twice to remove MethoCult. 100,000 cells were spun down on the slides using cytology funnels (Fisherbrand) in a cytocentrifuge at 600 rpm for 5 minutes.
Slides were then air dried overnight and stained with Hema 3 Stain Set (Thermo Fisher) according to manufacturer’s instructions. Images of the slides were taken at the Campus Microscopy & Imaging Facility Shared Resources here at OSUCCC using the light microscopy Zeiss Axioskop system.
Inducible MOLM13 NRAS G12D Cells
NRAS cDNA was cloned into pLVX -TetOne-Puro vector (Takara Bio USA). Site -directed mutagenesis to generate G12D mutation was carried out using the QuikChange II XL Site-Directed Mutagenesis Kit (Aligent) .
Mutagenesis primers were designed using the QuikChange Primer Design program and synthesized by Integrated DNA Technologies (IDT). Lentiviral production was carried out using the Lenti-X Packaging Single Shots (Takara Bio USA) according to manufactures protocol. Viral supernatant was then concentrated using PEG-it virus precipitation solution (System Biosciences). […]
Cells were counted every 2-3 days via Trypan […]

[12] = tested on: MOLM13 cells; assay: MOLM13 viability ± cytokines (MTT); details: Homo sapiens
[13] = tested on: primary FLT3-ITD/IDH2-R140Q murine leukemia cells; assay: CellTiterGlo viability assay, ex vivo; assay type: cell-based; details: Mus musculus, 72 hours
Description: as §1
Cell viability of primary samples […]
For murine or human primary AML cells, 100,000 cells/well were plated in a 96-well plate and treated with increasing concentrations of drug. Cell viability, via trypan blue, was measured every 24 hours. If the viability fell below 50% or at 72 hours of treatment, whichever came earlier, cell viability of each plate was measured via

[14] = MOLM-13, read-out: IC50 viability, MOLM13 + GM-CSF
[15] = MOLM-13, read-out: IC50 viability, MOLM13 + IL3
[16] = MOLM-13, read-out: IC50 viability, MOLM13 + IL3, IL6, GM-CSF
[17] = MOLM-13, read-out: IC50 viability, MOLM13 + IL6
[18] = MOLM-13, read-out: IC50 viability, MOLM13, no cytokine

Compound | IC50 [1] [nM] | IC50 [2] [nM] | IC50 [3] [nM] | IC50 [4] [nM] | IC50 [5] [nM] | IC50 [6] [nM] | IC50 [7] [nM] | IC50 [8] [nM] | IC50 [9] [nM] | IC50 [10] [nM] | Cell growth [11] | IC50 [12, 14] [nM] | IC50 [12, 15] [nM] | IC50 [12, 16] [nM] | IC50 [12, 17] [nM] | IC50 [12, 18] [nM] | IC50 [13] [nM]
CCc1nc(C(N)=O)c(Nc2ccc(N3CCC(N4CCN(C)CC4)CC3)c(OC)c2)nc1NC1CCOCC1 [Gilteritinib, gilteritinib] | 972 | 0.5 | 11 | 22 | 8 | 5.4 | 193 | 20 | 55 | 17 | resistant phenotype | 14.8 | 11.9 | 18.4 | 10.7 | 7.9 | 2600
CN1CCN(Cc2ccc(Nc3ncc(Cl)c(Nc4ccccc4S(=O)(=O)N(C)C)n3)cc2)CC1 [TP-0903] | 47 | 16 | 16 | 22 | 17 | 15 | 16 | 16 | 20 | 21 | complete loss of viable cells | 10.1 | 6.9 | 8.1 | 9.4 | 7.4 | 300
